According to patent US5721356A, “Orally active adenosine kinase inhibitors” (Gensia, Inc., priority 1995, dated 1998):
Where a name gives a salt, the structure may show the parent alone. Read-outs that look alike come from different tables or passages of the source.

Assays:
[1] = target: T1, partially purified pig heart adenosine kinase (Sus scrofa, UniProt A0A5G2R0F5); test: Adenosine kinase (AK) inhibition; format: biochemical
T1 construct: partially purified pig heart adenosine kinase; from tissue; host or cells: pig heart
T1 sequence (A0A5G2R0F5 1-362): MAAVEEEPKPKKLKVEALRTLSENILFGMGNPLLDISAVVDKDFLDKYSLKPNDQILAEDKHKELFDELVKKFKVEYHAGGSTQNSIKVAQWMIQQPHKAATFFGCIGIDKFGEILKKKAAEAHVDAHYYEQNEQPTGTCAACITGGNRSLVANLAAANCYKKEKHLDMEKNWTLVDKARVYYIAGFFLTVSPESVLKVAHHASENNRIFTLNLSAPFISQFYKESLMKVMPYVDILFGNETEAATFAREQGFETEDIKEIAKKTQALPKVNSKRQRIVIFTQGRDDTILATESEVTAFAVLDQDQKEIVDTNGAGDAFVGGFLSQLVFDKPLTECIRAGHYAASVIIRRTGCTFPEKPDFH
Description: Adenosine kinase activity was measured essentially as described by Yamada et al. Biochim. Biophys. Acta 660, 36-43 […] with a few minor modifications. Assay mixtures contained 50 mM TRIS-maleate buffer, pH 7.0, 0.1% BSA, 1 mM ATP 1 mM MgCl2, 0.5 μM [U-^14 C]adenosine (400-600 mCi/mmol) and varying duplicate concentrations of inhibitor. The reactions were initiated by addition of approximately 0.1 μU partially purified pig heart adenosine kinase, where one unit is defined as that amount of enzyme required to phosphorylate 1 μmol adenosine per minute. The reactions were incubated for 20 minutes at 37° C. The assay was quenched upon spotting 30 μL aliquots onto 2 cm^2 pieces of Whatman DE81 anion exchange paper. The paper squares were washed for 3 minutes in 6 L distilled/deionized water to remove the unreacted adenosine. […] The amount of ^14 C-AMP was quantified by scintillation counting.

male SA rats = test: Anticonvulsant activity, maximal electroshock (MES) model, suppression of hind limb tonic extension; format: in vivo; conditions: Rattus norvegicus, 1 h
[2] = test system: carrageenan-induced paw swelling in rats; test: Anti-inflammatory activity, carrageenan paw swelling; format: in vivo, rat; conditions: po, 10 mg/kg, paw swelling 3 hours after carrageenan, vs vehicle
Description: Carrageenan (Type λ) was suspended in sterile PBS at 1% (w/v), autoclaved for 30 minutes, and stored at room temperature. Rats were pretreated with vehicle or AK inhibitor (10 mg/kg) by oral gavage or i.p. administration and the volume of the left hind paw was measured using a water displacement plethysmometer (Stoelting Co., Wood Dale, Ill.). One hour after oral treatment or 30 minutes after i.p. treatment, the rats were briefly anesthetized, and 0.1 ml of the carrageenan solution was injected subcutaneously into the planar surface of the left hind paw. The ensuing paw swelling was measured by plethysmometry after 3 hours. The paw volume in millileters was subtracted from the pre-injection paw volume. Data are presented as the percent inhibition of paw swelling in AK inhibitor treated animals, compared to vehicle treated control animals.

[3] = Oral bioavailability in dogs (oral vs intravenous AUC); format: in vivo, dog (female beagles); conditions: dog, plasma, 10 mg/kg, read-out: % Oral Availability
Description: Oral bioavailability was determined by comparing the dose corrected areas under the plasma-concentration time curve (AUC) to infinity for the each tested compound, given orally and intravenously in dogs. […] One dog received this solution at an infusion rate of 0.1 mL/min for 20 minutes. The other dog received a 0.2 mL/in infusion for 10 minutes. […] The plasma was separated within 10 minutes of blood collection and was stored frozen. The plasma concentration of compound was then determined for these IV infusions. […] The plasma concentration of compound was determined for this oral administration. The samples were assayed for intact adenosine kinase inhibitor by high performance liquid chromatography (HPLC). An internal standard was added to each test sample and standard sample. Each was then extracted with 10 volumes of 1% v/v dimethylsulfoxide in acetonitrile. […] The dried residue was reconstituted in mobile phase and the contents were analyzed for the adenosine kinase inhibitor (AKI) on HPLC. […] Pharmacokinetic parameters were calculated from the plasma concentration vs. time data, using standard non-compartmental methods. […] et al., Pharmacokinetics., 2[…]. (1983).

female SA rats = test: Liver toxicity (serum liver enzymes and total bilirubin); format: in vivo, rat; conditions: iv infusion 2 x 37.5 μmole/kg, 12 hours after second dose
Description: Female SA rats (150-200 g) were anesthetized with halothane and cannulated via the internal jugular vein. The animals wee allowed to recover for 3 days. […] Twelve hours later, an additional 37.5 μmole/kg was infused over 20 minutes (total dose=75 μmole/kg). […] Liver enzymes (serum glutamic-oxaloacetic transaminase (SGOT), serum glutamic-pyruvic transaminase (SGPT), alkaline phosphatase) and total bilirubin in the serum samples were dermined by a commercial laboratory.

[4] = ip, one hour before seizure testing, >5 or <5 = fewer or more than 50% inhibited in initial screen at 5 mg/kg ip, read-out: Anticonvulsant ED50 (MES), ip
[5] = ip, one hour before seizure testing, >5 or <5 = fewer or more than 50% inhibited in initial screen at 5 mg/kg ip
[6] = po, fasted, one hour before seizure testing, read-out: Anticonvulsant ED50 (MES), po

Row | SMILES | ED50 at 5 mg/kg (male SA rats; [5]) | IC50 [1] | ED50 (male SA rats; [6]) | other results
1 | [N-]=[N+]=NC[C@H]1O[C@@H](n2nc(-c3cccs3)c3c(Nc4ccccc4)ncnc32)[C@H](O)[C@@H]1O [compound 97] | – | – | – | IC50 ([1]; 0.5 μM [U-14C]adenosine, pH 7.0, 37° C., 20 minutes, read-out: AK Inhibition (IC50)): 10 nM; ED50 (male SA rats; [4]): > 5 mg/kg
2 | COc1ccc(-c2nn([C@@H]3O[C@H](CN=[N+]=[N-])[C@@H](O)[C@H]3O)c3ncnc(Nc4ccc(C)cc4)c23)cc1 [compound 95] | > 5 mg/kg | – | – | –
3 | COc1ccc(-c2nn([C@@H]3O[C@H](CN=[N+]=[N-])[C@@H](O)[C@H]3O)c3ncnc(Nc4ccccc4)c23)cc1 [compound 94] | > 5 mg/kg | 3 nM | – | –
4 | CCc1ccc(Nc2ncnc3c2c(-c2ccccc2)cn3[C@@H]2O[C@H](C)[C@@H](O)[C@H]2O)cc1 [compound 29] | > 5 mg/kg | 20 nM | – | –
5 | C[C@H]1O[C@@H](n2c(Br)c(-c3ccccc3)c3c(Nc4ccc(F)cc4)ncnc32)[C@H](O)[C@@H]1O [compound 41] | > 5 mg/kg | 42 nM | – | –
6 | COc1ccc(Nc2ncnc3c2c(-c2ccccc2)cn3[C@@H]2O[C@H](C)[C@@H](O)[C@H]2O)cc1 [compound 13] | – | 6 nM | > 10 mg/kg | ED50 (male SA rats; [4]): 2 mg/kg
7 | C[C@H]1O[C@@H](n2cc(-c3ccccc3)c3c(Nc4ccc(N)cc4)ncnc32)[C@H](O)[C@@H]1O [compound 43] | < 5 mg/kg | 3 nM | – | –
8 | COc1ccc(-c2cn([C@@H]3O[C@H](C)[C@@H](O)[C@H]3O)c3ncnc(Nc4ccc(F)cc4)c23)cc1 [compound 25] | 3.1 mg/kg | 10 nM | – | –
9 | C[C@H]1O[C@@H](n2cc(-c3ccccc3)c3c(Nc4ccc(S(N)(=O)=O)cc4)ncnc32)[C@H](O)[C@@H]1O [compound 34] | 5 mg/kg | 5 nM | – | Carrageenan Paw (% inh) [2]: -0.2%
10 | Cc1ccc(-c2nn([C@@H]3O[C@H](CN=[N+]=[N-])[C@@H](O)[C@H]3O)c3ncnc(Nc4ccccc4)c23)cc1 [compound 93] | > 5 mg/kg | 20 nM | – | –
11 | Cc1ccc(-c2cn([C@@H]3O[C@H](C)[C@@H](O)[C@H]3O)c3ncnc(Nc4ccccc4)c23)cc1 [compound 16] | 2.3 mg/kg | 9 nM | 8.7 mg/kg | –
12 | C[C@H]1O[C@@H](n2cc(-c3cccc([N+](=O)[O-])c3)c3c(Nc4ccc(F)cc4)ncnc32)[C@H](O)[C@@H]1O [compound 30] | > 5 mg/kg | 28 nM | – | –
13 | COc1ccc(Nc2ncnc3c2c(-c2ccccc2)nn3[C@@H]2O[C@H](CN=[N+]=[N-])[C@@H](O)[C@H]2O)cc1 [compound 90] | > 3.4 mg/kg | 8 nM | – | –
14 | C[C@H]1O[C@@H](n2cc(-c3ccccc3)c3c(Nc4ccc(F)c(F)c4)ncnc32)[C@H](O)[C@@H]1O [compound 11] | 5 mg/kg | 4 nM | – | –
15 | C[C@H]1O[C@@H](n2nc(-c3ccccc3)c3c(Nc4ccc(Cl)cc4)ncnc32)[C@H](O)[C@@H]1O [compound 91] | – | – | – | IC50 ([1]; read-out: AK Inhibition (IC50), 0.5 μM [U-14C]adenosine, pH 7.0, 37° C., 20 minutes): 11 nM
16 | [N-]=[N+]=NC[C@H]1O[C@@H](n2nc(-c3ccc(Cl)cc3)c3c(Nc4ccccc4)ncnc32)[C@H](O)[C@@H]1O [compound 96] | > 5 mg/kg | 15 nM | – | –
17 | COc1ccc(Nc2ncnc3c2c(-c2ccccc2)nn3[C@@H]2O[C@H](C)[C@@H](O)[C@H]2O)cc1 [compound 89] | 5 mg/kg | 17 nM | – | –
18 | COc1ccc(-c2cn([C@@H]3O[C@H](C)[C@@H](O)[C@H]3O)c3ncnc(Nc4ccc(C#N)cc4)c23)cc1 [#27, 4-N-(4-cyanophenyl)amino-5-(4-methoxyphenyl)-7-(5-deoxy-1-β-D-ribofuranosyl)pyrrolo[2,3-d]pyrimidine] | – | – | – | bioavailability [3]: 100%

Row | SMILES | ED50 at 5 mg/kg (male SA rats; [5]) | IC50 [1] | ED50 (male SA rats; [6]) | other results
19 | C[C@H]1O[C@@H](n2cc(-c3ccccc3)c3c(Nc4ccc(O)cc4)ncnc32)[C@H](O)[C@@H]1O [compound 20] | – | 32 nM | 40 mg/kg | ED50 (male SA rats; [4]): 5.5 mg/kg
20 | Cc1cccc(Nc2ncnc3c2c(-c2ccccc2)cn3[C@@H]2O[C@H](C)[C@@H](O)[C@H]2O)c1 [compound 18] | 3.8 mg/kg | 4 nM | > 40 mg/kg | –
21 | C[C@H]1O[C@@H](n2nc(-c3ccccc3)c3c(Nc4ccccc4)ncnc32)[C@H](O)[C@@H]1O [compound 86] | 12.3 mg/kg | 4.5 nM | > 20 mg/kg | –
22 | [N-]=[N+]=NC[C@H]1O[C@@H](n2nc(-c3ccccc3)c3c(Nc4ccccc4)ncnc32)[C@H](O)[C@@H]1O [compound 87] | 2.31 mg/kg | 4.5 nM | > 2.3 mg/kg | –
23 | NC[C@H]1O[C@@H](n2nc(Br)c3c(N)ncnc32)[C@H](O)[C@@H]1O [REF. B, 4amino-1-(5-amino-5-deoxy-1-D-ribofuranosyl)-3-bromopyrazolo[3,4d]pyrimidne HCL] | – | – | – | SGOT (female SA rats): 100 IU/L; SGPT (female SA rats): 41 IU/L; Total Bilirubin (female SA rats): 0.30 mg/dL
24 | OC[C@H]1O[C@@H](n2nc(-c3ccccc3)c3c(Nc4ccccc4)ncnc32)[C@H](O)[C@@H]1O [compound 88] | – | 5 nM | > 2.6 mg/kg | ED50 (male SA rats; [4]): 2.62 mg/kg
25 | C[C@H]1O[C@@H](n2cc(I)c3c(N)ncnc32)[C@H](O)[C@@H]1O [REF. A] | – | – | – | SGPT (female SA rats): 76 IU/L; Total Bilirubin (female SA rats): 0.76 mg/dL
26 | C[C@H]1O[C@@H](n2cc(-c3ccccc3)c3c(Nc4cccc(Cl)c4)ncnc32)[C@H](O)[C@@H]1O [compound 17] | – | 17 nM | – | –
27 | CC(=O)Nc1ccc(Nc2ncnc3c2c(-c2ccccc2)cn3[C@@H]2O[C@H](C)[C@@H](O)[C@H]2O)cc1 [compound 32] | 5 mg/kg | 0.5 nM | > 5 mg/kg | –
28 | C[C@H]1O[C@@H](n2cc(-c3ccccc3)c3c(Nc4cccc(F)c4)ncnc32)[C@H](O)[C@@H]1O [compound 19] | 0.4 mg/kg | 2 nM | > 30 mg/kg | –
29 | C[C@H]1O[C@@H](n2cc(-c3ccccc3)c3c(NCc4ccccc4)ncnc32)[C@H](O)[C@@H]1O [compound 38] | – | 30 nM | – | ED50 (male SA rats; [4]): > 5 mg/kg
30 | [N-]=[N+]=NC[C@H]1O[C@@H](n2nc(-c3ccccc3)c3c(Nc4ccc(Cl)cc4)ncnc32)[C@H](O)[C@@H]1O [compound 92] | – | 17 nM | – | –
31 | COc1ccc(-c2cn([C@@H]3O[C@H](C)[C@@H](O)[C@H]3O)c3ncnc(Nc4ccc(C(N)=O)cc4)c23)cc1 [compound 31] | > 5 mg/kg | 2 nM | – | Carrageenan Paw (% inh) [2]: -5.8%
32 | C[C@H]1O[C@@H](n2cc(-c3ccc(F)cc3)c3c(Nc4ccccc4)ncnc32)[C@H](O)[C@@H]1O [compound 24] | 2.5 mg/kg | – | 10 mg/kg | –
33 | C[C@H]1O[C@@H](n2cc(-c3ccccc3)c3c(Nc4cc(F)cc(F)c4)ncnc32)[C@H](O)[C@@H]1O [compound 10] | – | 1 nM | – | ED50 (male SA rats; [4]): 5 mg/kg
34 | CCOc1ccc(Nc2ncnc3c2c(-c2ccccc2)cn3[C@@H]2O[C@H](C)[C@@H](O)[C@H]2O)cc1 [compound 28] | < 5 mg/kg | 4 nM | – | Carrageenan Paw (% inh) [2]: 31.0%
35 | C[C@H]1O[C@@H](n2cc(-c3cccc(Cl)c3)c3c(Nc4ccccc4)ncnc32)[C@H](O)[C@@H]1O [compound 15] | 2.5 mg/kg | 16 nM | – | ED50 (male SA rats; po, read-out: Anticonvulsant ED50 (MES), po): > 20 mg/kg
36 | CSc1ccc(Nc2ncnc3c2c(-c2ccccc2)cn3[C@@H]2O[C@H](C)[C@@H](O)[C@H]2O)cc1 [compound 40] | 5 mg/kg | 2 nM | > 10 mg/kg | –
